Test [1] addresses T1, HIV-1 integrase (Human immunodeficiency virus type 1 group M subtype B, UniProt P04585).
T1 construct: strand transfer activity of HIV-1 integrase
Kind of test: HIV integrase assay: strand transfer catalyzed by recombinant integrase. Conditions: strand transfer activity. Type of test: biochemical. The procedure: Assays for the strand transfer activity of HIV-1 integrase were conducted in accordance with WO 02/30930 for recombinant integrase.
Further description on conducting the assay using preassembled complexes is found in Wolfe, A. L. et al., J. Virol. 1996, 70: 1424-1432, Hazuda et al., J. Virol. 1997, 71: 7005-7011; Hazuda et al., Drug Design and Discovery 1997, 15: 17-24; and Hazuda et al., Science 2000, 287: 646-650.

Test [2] deals with HIV-1. Kind of test: Inhibition of acute HIV-1 infection of T-lymphoid cells (spread assay). Type of test: cell-based. Conditions: 10% FBS, read-out: IC95 (nM) in the presence of 10% FBS. The procedure:
Assays for the inhibition of acute HIV-1 infection of T-lymphoid cells were conducted in accordance with Vacca, J. P. et al., Proc. Natl. Acad. Sci. USA 1994, 91: 4096.

Test [3] relates to HIV-1 wild type IIIB. Kind of test: Single cycle infectivity assay in HeLa P4-2 cells, wild type virus. Type of test: cell-based. Summed up:
(§1)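 HeLa P4-2 cells used in a single-cycle acute HIV-1 infection assay. Wild-type IIIB or integrase mutant viruses made by site-directed mutagenesis of proviral plasmids and produced by transfection of 293T cells.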

Test [4] concerns HIV-1 integrase mutant virus N155H. Kind of test: Single cycle infectivity assay in HeLa P4-2 cells, integrase mutant N155H virus. Type of test: cell-based. Conditions: fold shift in IC50 versus wild type IIIB. A digest of the protocol: as §1
In test [5] the test system is HIV-1 integrase mutant virus Q148R. Kind of test: Single cycle infectivity assay in HeLa P4-2 cells, integrase mutant Q148R virus. Conditions: fold shift in IC50 versus wild type IIIB. Type of test: cell-based. A digest of the protocol: as §1
In test [6] the test system is HIV-1 integrase mutant virus Y143R. Kind of test: Single cycle infectivity assay in HeLa P4-2 cells, integrase mutant Y143R virus. It is filed as cell-based. Conditions: fold shift in IC50 versus wild type IIIB. A digest of the protocol:
as §1

Test [7] concerns HIV-1 integrase mutant virus G140S/Q148H. In words: Single cycle infectivity assay in HeLa P4-2 cells, integrase mutant G140S/Q148H virus. Type of test: cell-based. Conditions: fold shift in IC50 versus wild type IIIB. Summed up:
as §1

Setting [8] is: Human immunodeficiency virus 1, T-lymphoid.
Where [9] appears, read: Human immunodeficiency virus 1, IIIB, HeLaP4-2, wild type IIIB.

Like-named read-outs stand apart in the source and are kept apart here.

The term IC50 denotes the concentration needed to halve the response being measured. One may read the IC95 as the concentration needed for an effect of 95%.

Consider `Cc1cc(CNC(=O)c2nc3n(c(=O)c2O)CC2CCC3(N(C)C(=O)C(=O)N(C)C)CO2)ccc1F` (single isomer, unassigned) [Example 11A], for which the IC50 came to 0.037 µM in test [1] and 0.021 µM in test [3] (wild type IIIB). Moreover, in test [2], the IC95 amounted to 17 nM. The “N155H (shift)” value in test [4] came out at 10 fold. In test [5], the “Q148R (shift)” value is on record as 8 fold. For the same molecule, the “Y143R (shift)” value in test [6] amounted to 2 fold. Also, the “G140S/Q148H (shift)” value in test [7] is given as above 79 fold.

Turning to `Cc1cc(CNC(=O)c2nc3n(c(=O)c2O)CC2CCC3(N(C)C(=O)C(=O)N(C)C)CO2)ccc1F` (single isomer, unassigned) [Example 11B], the IC50 in test [1] came to 0.014 µM; in test [3] (wild type IIIB), 0.112 µM. Further, the concentration for an effect of 95% (IC95) in test [2] was found to be 7.8 nM. Besides, in test [4], the “N155H (shift)” value is given as 5 fold. The “Q148R (shift)” value in test [5] turned out to be 2 fold. The “Y143R (shift)” value in test [6] turned out to be 1 fold. The “G140S/Q148H (shift)” value in test [7] worked out at 14 fold.

`CCN(C(=O)C(=O)N(C)C)C12CCC(Cn3c1nc(C(=O)NCc1ccc(F)cc1)c(O)c3=O)OC2` (single isomer, unassigned) [Example 12A, N-Ethyl-N-(4-{[(4-fluorobenzyl)amino]carbonyl}-5-hydroxy-6-oxo-10-oxa-3,7-diazatricyclo[7.2.2.0^2,7]trideca-2,4-dien-1-yl)-N′,N′-dimethylethanediamide]: the half-maximal inhibitory concentration (IC50) in test [1] stood at 0.011 µM; in test [3] (wild type IIIB) it was 0.023 µM. Further, the IC95 in test [2] (setting [8]) is 11 nM. The “N155H (shift)” value in test [4] came to 6 fold. For the same molecule, the “Q148R (shift)” value in test [5] came out at 7 fold. The “Y143R (shift)” value in test [6] is on record as 2 fold. Further, in test [7], the “G140S/Q148H (shift)” value came to 112 fold.

As for `CCN(C(=O)C(=O)N(C)C)C12CCC(Cn3c1nc(C(=O)NCc1ccc(F)cc1)c(O)c3=O)OC2` (single isomer, unassigned) [Example 12B, N-Ethyl-N-(4-{[(4-fluorobenzyl)amino]carbonyl}-5-hydroxy-6-oxo-10-oxa-3,7-diazatricyclo[7.2.2.0^2,7]trideca-2,4-dien-1-yl)-N′,N′-dimethylethanediamide], the IC50 in test [1] was 0.018 µM; in test [3] (wild type IIIB) it was 0.007 µM. Further, in test [2], the concentration for an effect of 95% (IC95) is listed as 19 nM. For the same molecule, the “N155H (shift)” value in test [4] came out at 56 fold. The “Q148R (shift)” value in test [5] was 32 fold. In addition, the “Y143R (shift)” value in test [6] stood at 7 fold. In addition, the “G140S/Q148H (shift)” value in test [7] was found to be 240 fold.

Consider `CC1C2CCC(N(C)C(=O)C(=O)N(C)C)(CC2)c2nc(C(=O)NCc3ccc(F)cc3)c(O)c(=O)n21` (single isomer, unassigned) [Example 13A, N-(4-{[(4-fluorobenzyl)amino]carbonyl}-5-hydroxy-8-methyl-6-oxo-3,7-diazatricyclo[7.2.2.0^2,7]trideca-2,4-dien-1-yl)-N′,N′,N″-trimethylethanediamide], for which the IC50 in test [1] was 0.013 µM; in test [3] (setting [9]) it was 0.007 µM. Further, the concentration for an effect of 95% (IC95) in test [2] is listed as 8.6 nM. In test [4], the “N155H (shift)” value came out at 2 fold. Besides, the “Q148R (shift)” value in test [5] is recorded as 1 fold. Further, the “Y143R (shift)” value in test [6] is reported as 2 fold. The “G140S/Q148H (shift)” value in test [7] is on record as 2 fold.

For the molecule `CC1C2CCC(N(C)C(=O)C(=O)N(C)C)(CC2)c2nc(C(=O)NCc3ccc(F)cc3)c(O)c(=O)n21` (single isomer, unassigned) [Example 13B, N-(4-{[(4-fluorobenzyl)amino]carbonyl}-5-hydroxy-8-methyl-6-oxo-3,7-diazatricyclo[7.2.2.0^2,7]trideca-2,4-dien-1-yl)-N′,N′,N″-trimethylethanediamide], the IC50 in test [1] amounted to 0.013 µM; in test [3] (wild type IIIB) it was 0.008 µM. Further, the IC95 in test [2] came to 20 nM. Moreover, the “N155H (shift)” value in test [4] is listed as 30 fold. Also, in test [5], the “Q148R (shift)” value was determined as 57 fold. In addition, the “Y143R (shift)” value in test [6] amounted to 7 fold. The “G140S/Q148H (shift)” value in test [7] is recorded as above 209 fold.

As to `CN(C)C(=O)C(=O)N(C)C12CCC(CC1)Cn1c2nc(C(=O)NCc2ccc(F)cc2)c(O)c1=O` [Example 1, N-(4-{[(4-fluorobenzyl)amino]carbonyl}-5-hydroxy-6-oxo-3,7-diazatricyclo[7.2.2.0^2,7]trideca-2,4-dien-1-yl)-N′,N′,N″-trimethylethanediamide], the results for the IC50 in test [1] and in test [3] (setting [9]) were 0.013 µM and 0.0072 µM, respectively. The IC95 in test [2] (setting [8]) came out at 6.2 nM. The “N155H (shift)” value in test [4] is reported as 3 fold. Moreover, the “Q148R (shift)” value in test [5] came to 2 fold. Moreover, the “Y143R (shift)” value in test [6] is given as 2 fold. For the same molecule, the “G140S/Q148H (shift)” value in test [7] worked out at 15 fold.

Take `Cc1cc(CNC(=O)c2nc3n(c(=O)c2O)CC2CCC3(N(C)C(=O)C(=O)N(C)C)CC2)ccc1F` [Example 2, N-(4-{[(4-fluoro-3-methylbenzyl)amino]carbonyl}-5-hydroxy-6-oxo-3,7-diazatricyclo[7.2.2.0^2,7]trideca-2,4-dien-1-yl)-N,N′,N″-trimethylethanediamide]: the IC50 in test [1] is 0.015 µM; in test [3] (setting [9]) it was 0.004 µM. Moreover, the IC95 in test [2] (setting [8]) was 7.2 nM. In addition, the “N155H (shift)” value in test [4] is 2 fold. The “Q148R (shift)” value in test [5] was 2 fold. In addition, in test [6], the “Y143R (shift)” value was 1 fold. The “G140S/Q148H (shift)” value in test [7] is listed as 5 fold.

Consider `CN(C(=O)C(=O)N1CCOCC1)C12CCC(CC1)Cn1c2nc(C(=O)NCc2ccc(F)cc2)c(O)c1=O` [Example 3, N-(4-fluorobenzyl)-5-hydroxy-1-{methyl[morpholin-4-yl(oxo)acetyl]amino}-6-oxo-3,7-diazatricyclo[7.2.2.0^2,7]trideca-2,4-diene-4-carboxamide], for which the IC50 came to 0.032 µM in test [1] and 0.031 µM in test [3] (setting [9]). In addition, the IC95 in test [2] (setting [8]) came out at 11 nM. The “N155H (shift)” value in test [4] amounted to 2 fold. Further, in test [5], the “Q148R (shift)” value stood at 2 fold. In addition, the “Y143R (shift)” value in test [6] turned out to be 1 fold. For the same molecule, the “G140S/Q148H (shift)” value in test [7] was determined as 9 fold.

With `CN1CCN(C(=O)C(=O)N(C)C23CCC(CC2)Cn2c3nc(C(=O)NCc3ccc(F)cc3)c(O)c2=O)CC1` [Example 4], the IC50 in test [1] came to 0.014 µM; in test [3] (setting [9]) it was 0.033 µM. For the same molecule, the 95% effect concentration (IC95) in test [2] (setting [8]) was 39 nM. For the same molecule, the “N155H (shift)” value in test [4] was 4 fold. In test [5], the “Q148R (shift)” value is 3 fold. In addition, in test [6], the “Y143R (shift)” value amounted to 1 fold. Also, the “G140S/Q148H (shift)” value in test [7] was 4 fold.

Turning to `CN(C)C(=O)C(=O)NC12CCC(CC1)Cn1c2nc(C(=O)NCc2ccc(F)cc2)c(O)c1=O` [Example 5, N′-{2-[(4-fluorobenzyl)carbamoyl]-3-hydroxy-4-oxo-6,7,8,9-tetrahydro-7,10-ethanopyrimido[1,2-a]azepin-10(4H)-yl}-N,N-dimethylethanediamide], the results for the IC50 in test [1] and in test [3] (setting [9]) were 0.033 µM and 0.0067 µM, respectively. Besides, in test [2] (setting [8]), the concentration for an effect of 95% (IC95) is below 3.9 nM. The “N155H (shift)” value in test [4] was found to be 2 fold. The “Q148R (shift)” value in test [5] is reported as 1 fold. In test [6], the “Y143R (shift)” value was found to be 1 fold. Also, the “G140S/Q148H (shift)” value in test [7] is 9 fold.

`O=C(NC12CCC(CC1)Cn1c2nc(C(=O)NCc2ccc(F)cc2)c(O)c1=O)C(=O)N1CCOCC1` [Example 6, N-(4-Fluorobenzyl)-3-hydroxy-10-{[morpholin-4-yl(oxo)acetyl]amino}-4-oxo-4,6,7,8,9,10-hexahydro-7,10-ethanopyrimido[1,2-a]azepine-2-carboxamide]: the IC50 in test [1] turned out to be 0.037 µM; in test [3] (setting [9]) it was 0.009 µM. Besides, the IC95 in test [2] (setting [8]) is 5.3 nM. Further, the “N155H (shift)” value in test [4] stood at 2 fold. For the same molecule, in test [5], the “Q148R (shift)” value turned out to be 2 fold. In addition, the “Y143R (shift)” value in test [6] is listed as 1 fold. In test [7], the “G140S/Q148H (shift)” value stood at 5 fold.

For “N-5-{[(4-fluorolbenzyl)amino]carbonyl}-4-hydroxy-3-oxo-2,6-diazatricyclo[6.3.2.0^2,7]trideca-4,6-dien-8-yl)-N,N′,N′-trimethylethanediamide [Example 24B]”, the IC50 in test [1] is 0.024 µM; in test [3] (wild type IIIB) it was 0.007 µM. For the same molecule, the IC95 in test [2] is on record as 7.4 nM. In addition, in test [4], the “N155H (shift)” value was 3 fold. The “Q148R (shift)” value in test [5] came out at 1 fold. The “Y143R (shift)” value in test [6] came to 2 fold. Moreover, the “G140S/Q148H (shift)” value in test [7] is 6 fold.

(Values after patent publication US20120022045A1, “BRIDGED COMPOUNDS AS HIV INTEGRASE INHIBITORS” (priority 2009, published 2012).)
